Measured values taken from PubChem BioAssay AID179 (DTP/NCI, 2004).
Where “and” joins values, the source holds several entries; their conditions need not be identical. Equal values may be shown once. Calls of active or inactive are those of the source.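 Rule for the calls: active = compounds giving half or more protection of infected cells from virus-caused growth loss, again on retest; inactive = the rest.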

Test system: CEM cells HIV-1 protection, formazan growth assay
Assay: NCI AIDS Antiviral Assay
Conditions: for IC50: measured here: growth of uninfected CEM cells
How it was run: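 Protection of CEM cells against HIV-1 was scored from cell growth (soluble formazan) across five concentrations, with parallel uninfected cells. Lack of protection may reflect toxicity.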

SMILES	EC50 [µM]	IC50	outcome
CCOc1ccc(N2CC(=O)N3CCCC(C)N3C(=O)C2)cc1 (stereo not given)	> 200	170 µM	–
CCOC(=O)CCC(NC(=O)c1ccc(OCc2ccc3nc(OC)c(OC)nc3c2)cc1)C(=O)OCC (stereo not given)	> 200	41.7 µM	–
CC(=O)Oc1ccc(-c2oc3c([C@H]4C=C(C)CC(c5ccc(OC(C)=O)cc5OC(C)=O)[C@@H]4C(=O)c4ccc(OC(C)=O)c(CC=C(C)C)c4OC(C)=O)c(OC(C)=O)cc(O)c3c(=O)c2CC=C(C)C)c(OC(C)=O)c1 (stereo not given in full)	> 11.7	7.41 µM	–
N#Cc1nc(-c2ccccc2C(=O)O)oc1N	–	–	inactive
S=C1CC(c2ccc(Sc3ccccc3)cc2)=Nc2ccccc2N1	> 200	75.9 µM	–
N#CC(C#N)N=Cc1ccncc1	> 200	170 µM	–
OC1CSc2ccccc2-n2cccc21 (stereo not given)	> 138	110 µM	–
Cc1ccc(NC(=O)C(=O)C2NC(=S)NC2=O)c([N+](=O)[O-])c1 (stereo not given)	> 295	129 µM	–
COC(=O)C1(NC(=O)C(N)CC(=O)O)CC1(C)C (stereo not given)	> 200	> 200 µM	–
O=C(NC(O)(C(F)(F)F)C(F)(F)F)c1ccccc1	> 200	129 µM	–
O=c1[nH]c(O)c(/C=N/C(=S)Nc2ccc(S(=O)(=O)Nc3nccs3)cc2)c(=O)[nH]1	> 200	> 200 µM	–
Cc1cc(N(CCC#N)CCC#N)ccc1N=Nc1ccc(C(=O)O)cc1	> 100	> 100 µM	–
COc1ccc(C(C(N)=O)N2CCOCC2)cc1 (stereo not given)	129	> 200 µM	–
NC(=O)CN1CC(C2=C(O)CN(CC(N)=O)C2=O)=CC1=O	–	–	inactive
O=C(c1ccccc1)N1OCCCc2ccccc21	> 200	195 µM	–
CN1C(=O)C2(C=CCC2)c2ccccc21 (stereo not given)	> 1260	81.3 µM	–
CNCCOC(c1ccccc1)c1ccccc1C (stereo not given)	> 200	93.3 µM and 25.1 µM	–
Cc1cc2c(c3oc(=O)ccc13)[C@@H](OC(=O)C13CCC(C)(C(=O)O1)C3(C)C)[C@@H](OC(=O)C13CCC(C)(C(=O)O1)C3(C)C)C(C)(C)O2 (stereo not given in full)	0.38	2 µM	–
CN=c1nc2sc3c(c2c(NC(=S)NC)s1)CCCC3	77.6	> 200 µM	–
CCOC(=O)N/N=C(/N)Cc1ccc(Cl)cc1	> 200	120 µM	–
CCc1ccc(/C(C#N)=C/c2cccc3ccccc23)cc1	> 200	26.9 µM	–

SMILES	EC50 [µM]	IC50	outcome
Cn1c(=O)[nH]n(-c2ccc3ccccc3c2)c1=O	> 200	> 200 µM	–
CN(C)CCCOC(=O)C(c1ccccc1)C1(O)CCSCC1 (stereo not given)	> 200	> 200 µM	–
Cc1nc2c(=O)[nH]cnc2o1	> 575	> 575 µM	–
[N-]=[N+]=NC(=O)c1ccc(S(=O)(=O)c2ccc(F)cc2)cc1	–	–	inactive
NC(N)=N/N=C(/c1nc2ccc([N+](=O)[O-])cc2[nH]c1=O)C(O)c1ccco1 (stereo not given)	> 251	141 µM	–
COc1cc(C(C)c2cc3c(cc2OCCO)OCO3)cc(OC)c1OC (stereo not given)	> 347	0.447 µM	–
CN1OC2OC(=O)OC2[C@H]1[C@H]1O[C@H](c2ccccc2)OC1(C)c1cc(OC(=O)c2ccccc2)ccc1OC(=O)c1ccccc1 (stereo not given in full)	> 2.34	> 2.34 µM	–
O=C(NN1C(=O)c2ccccc2C1=O)c1ccccc1Nc1ccccc1C(=O)NN1C(=O)c2ccccc2C1=O	> 200	> 200 µM	–
Cc1cc2c(cc1C)NC(=O)CC(c1ccccc1)=N2	> 200	> 200 µM	–
CC(C)CCCC(C)[C@H]1CC[C@@H]2[C@H]3CC[C@H]4C[C@@H](CCC=C(c5cc(Cl)c(OCc6ccccc6[N+](=O)[O-])c(C(=O)OCc6ccccc6[N+](=O)[O-])c5)c5cc(Cl)c(OCc6ccccc6[N+](=O)[O-])c(C(=O)OCc6ccccc6[N+](=O)[O-])c5)CC[C@]4(C)[C@@H]3CC[C@]12C (stereo not given in full)	112	> 200 µM	–
CC(C)C12C=CC(C)(CC1)n1c(=O)c3cc4ccccc4cc3c(=O)n12 (stereo not given)	> 4.17	> 4.17 µM	–
Nc1c(S(=O)(=O)O)cc2cc(S(=O)(=O)O)ccc2c1N=Nc1ccc(S(=O)(=O)c2ccc(N=Nc3c(N)c(S(=O)(=O)O)cc4cc(S(=O)(=O)O)ccc34)cc2)cc1	> 64.6	> 64.6 µM	–
Cc1cccc(C(=O)c2ccccc2)c1C(=O)O	> 200	> 200 µM	–
C/C(=N/NC(=S)Nc1ccccc1Cl)c1cccc(/C(C)=N\NC(=S)Nc2ccccc2Cl)n1	> 200	87.1 µM	–
OCCN1CCN(C2=Nc3cccnc3Nc3cscc32)CC1	> 200	> 200 µM	–
COc1cc2cc(OC(C)=O)c3cc4c(cc3c2c(OC)c1OC)OCO4	> 676	> 676 µM	–
NCCSSc1ccc([N+](=O)[O-])cc1	–	–	inactive
OCC1(C(F)(F)F)OC(n2cncn2)CC1O (stereo not given)	> 200	> 200 µM	–
CS(=O)(=O)c1cc([N+](=O)[O-])c(C(N)=O)cc1N(CCCl)CCCl	> 200	> 200 µM	–
CC(C)(C)[Si](C)(C)OC1C(CC#N)C(CO)OC1n1ccc(=O)[nH]c1=O (stereo not given)	> 200	> 200 µM	–
Oc1[nH]c(=S)sc1/C=C1\C=Nc2ccccc21	> 501	195 µM	–
